In ChEMBL document CHEMBL1127169, “Syntheses of new 3-oxa-methano-PGI1 derivatives and their biological properties” (Bioorg Med Chem Lett, 1993):
≈ marks a conversion by molar mass, not a printed value.

Key:
Oryctolagus cuniculus [1] = species: Oryctolagus cuniculus; assay: The compound was tested for inhibition of rabbit platelet aggregation induced by ADP, activity compared with PGE1 as standard was found to be <1/400; assay type: functional
Oryctolagus cuniculus [2] = species: Oryctolagus cuniculus; assay: The compound was tested for inhibition of rabbit platelet aggregation induced by arachidonic acid; assay type: functional
Cavia porcellus = species: Cavia porcellus; assay: The compound was tested for inhibition of guinea pig platelet aggregation induced by ADP; assay type: functional
Homo sapiens = species: Homo sapiens; assay: The compound was tested for inhibition of human platelet aggregation induced by ADP; assay type: functional
Oryctolagus cuniculus [3] = species: Oryctolagus cuniculus; assay: The compound was tested for inhibition of rabbit platelet aggregation induced by collagen; assay type: functional
Canis familiaris = species: Canis familiaris; assay: The compound was tested for inhibition of dog platelet aggregation induced by ADP; assay type: functional; settings: Canis lupus familiaris
Rattus norvegicus = species: Rattus norvegicus; assay: The compound was tested for inhibition of rat platelet aggregation induced by ADP; assay type: functional
Oryctolagus cuniculus [4] = species: Oryctolagus cuniculus; assay: The compound was tested for inhibition of rabbit platelet aggregation induced by ADP; activity compared with PGE1 as standard was found to be 1/1.2; assay type: functional
Oryctolagus cuniculus [5] = species: Oryctolagus cuniculus; assay: The compound was tested for inhibition of rabbit platelet aggregation induced by ADP; assay type: functional, organism-based
Oryctolagus cuniculus [6] = species: Oryctolagus cuniculus; assay: The compound was tested for inhibition of rabbit platelet aggregation induced by ADP, activity compared with PGE1 as standard was found to be 1/80.; assay type: functional
Oryctolagus cuniculus [7] = species: Oryctolagus cuniculus; assay: The compound was tested for inhibition of rabbit platelet aggregation induced by ADP, activity compared with PGE1 as standard was found to be 1/3.6; assay type: functional
Oryctolagus cuniculus [8] = species: Oryctolagus cuniculus; assay: The compound was tested for inhibition of rabbit platelet aggregation induced by ADP, activity compared with PGE1 as standard; assay type: functional

CCCC[C@H](C)C[C@H](O)/C=C/[C@@H]1[C@H]2C[C@H](CCOCC(=O)O)C[C@H]2C[C@@H]1O
Relative activity (Oryctolagus cuniculus [1]): < 0.0025

CCCC[C@H](C)C[C@H](O)/C=C/[C@@H]1[C@H]2C[C@H](CCOCC(=O)O)C[C@H]2C[C@H]1O
IC50 (Oryctolagus cuniculus [2]): 0.0476 µg/mL (≈ 0.124 µM)
IC50 (Cavia porcellus): 0.0031 µg/mL (≈ 0.0081 µM)
IC50 (Homo sapiens): 0.0125 µg/mL (≈ 0.0327 µM)
IC50 (Oryctolagus cuniculus [3]): 0.0183 µg/mL (≈ 0.0478 µM)
IC50 (Canis familiaris): 0.0043 µg/mL (≈ 0.0112 µM)
IC50 (Rattus norvegicus): 0.0098 µg/mL (≈ 0.0256 µM)
Relative activity (Oryctolagus cuniculus [4]): 0.833
IC50 (Oryctolagus cuniculus [5]): 0.0241 µg/mL (≈ 0.063 µM)

CCCC[C@H](C)C[C@@H](O)/C=C/[C@@H]1[C@H]2C[C@H](CCOCC(=O)O)C[C@H]2C[C@H]1O
Relative activity (Oryctolagus cuniculus [1]): < 0.0025

CCCCC[C@H](O)/C=C/[C@@H]1[C@H]2C[C@H](CCCCC(=O)O)C[C@H]2C[C@H]1O
Relative activity (Oryctolagus cuniculus [6]): 0.0125

CCCC[C@@H](C)C[C@H](O)/C=C/[C@@H]1[C@H]2C[C@H](CCOCC(=O)O)C[C@H]2C[C@H]1O
Relative activity (Oryctolagus cuniculus [7]): 0.278

CCCCC[C@H](O)/C=C/[C@H]1[C@H](O)CC(=O)[C@@H]1CCCCCCC(=O)O [ALPROSTADIL]
IC50 (Oryctolagus cuniculus [2]): 0.0359 µg/mL (≈ 0.101 µM)
IC50 (Cavia porcellus): 0.0025 µg/mL (≈ 0.00705 µM)
IC50 (Homo sapiens): 0.0136 µg/mL (≈ 0.0384 µM)
IC50 (Oryctolagus cuniculus [3]): 0.0132 µg/mL (≈ 0.0372 µM)
IC50 (Canis familiaris): 0.0038 µg/mL (≈ 0.0107 µM)
IC50 (Rattus norvegicus): 0.0344 µg/mL (≈ 0.097 µM)
IC50 (Oryctolagus cuniculus [5]): 0.0207 µg/mL (≈ 0.0584 µM)
Relative activity (Oryctolagus cuniculus [8]): 1
